From patent publication US20060030616A1, “Anhydride modified cantharidin analogues useful in the treatment of cancer” (priority 1998, published 2006)
Read-outs that look alike come from different tables or passages of the source.

Key:
[1] = tested on: protein phosphatase 1 (PP1); assay: Inhibition of protein phosphatase 1, [32P]-phosphorylase substrate; type: biochemical, chicken; conditions: for Inhibition of PP1 (%): initial screening at 100 mM (so in the source)
Description: (§1) All synthesised compounds were tested for their ability to inhibit protein phosphatases 1 and 2A. Initial investigations were carried out at 100 mM. Promising analogues were then assayed in triplicate for estimation of IC50 values.
(§2) Protein phosphatase 1 and 2A were partially purified from chicken skeletal muscle essentially as described by Cohen Protein phosphatase activity was measured at 37° C. in 50 mM Tris-HCl buffer (pH 7.4), 0.1 mM EDTA, 5 mM caffeine, 0.1% 2-mercaptoethanol and 1 mg/ml bovine serum albumin using […] [^32P]-phosphorylase as substrate. The total assay volume was […]. The assay conditions were restricted to 20% dephosphorylation to ensure linearity and inhibition of protein phosphatase activity was determined by including cantharidin or its analogues at the required concentrations in the reaction buffer. Reactions were terminated by the addition of 0.1 ml ice cold 20% trichloroacetic acid. Precipitated protein was pelleted by centrifugation and the radioactivity in the supernatant measured by liquid scintillation counting. Data is expressed as the percentage inhibition with respect to a control (absence of a competing compound) incubation.
(§3) Anhydrides and simple analogues were synthesised according to literature procedures (Eggelte et. al; 1973), and then subjected to a PP1 and PP2A bio-assay (see biochemistry) to determine their ability to inhibit these enzymes. The results of initial screening at 100 mMs are shown in Table 4, along with IC50 values in some instances.

[2] = target: protein phosphatase 2A (PP2A) (Gallus gallus, UniProt P48463); assay: Inhibition of protein phosphatase 2A, [32P]-phosphorylase substrate; type: biochemical, chicken; design: inhibition: dose or concentration left out as unconfirmed
Description: as §1, §2, §3

[3] = Stability under assay conditions; type: physicochemical; conditions: PP assay conditions
[4] = tested on: protein phosphatase 2A (PP2A); conditions: cited from earlier work; for IC50: background art
nine cancer cell lines = assay: MTT cytotoxicity assay, 72 h, ranges over cell line panel; type: cell-based
Description: (§4) Cells in a subconfluent phase are transferred to 96-well microtitre plates. L1210 cells are plated at a density of 1000 cells/well in 100 μl medium, while all other cell lines are plated at a density of 2000-25000 cells/well. The cells are left for 24 h prior to treatment to ensure exponential growth has been achieved, 24 h after plating (day 0), 100 μl of phosphatase inhibitor is added to each well, control wells received 100 μl of medium only. Drug exposure time is 72 h (day 3). The effect of phosphatase inhibition is tested in triplicate over a concentration range of […]−1×10^−8 M. Growth inhibitory effects are evaluated using the MTT assay and absorbance read at […]. The IC50 is the drug concentration at which cell growth is 50% inhibited based on the difference of optical density on day 0 and day 3 of drug exposure. Cytotoxicity is evaluated using a spectrophotometric assay which determines the percentage of cell growth following exposure of the cells to various concentrations of the phosphatase inhibitors for a period of 72 hours. The subsequent dose response curve is used to calculate IC50 values (the drug concentration at which cell growth is 50% inhibited).
(§5) Anti-cancer screening of the protein phosphatase inhibitors is assessed using the MTT assay. This assay determines cell viability by the ability of mitochondrial dehydrogenase to produce formazan crystals from 3-(4,5-dimethylthiazol-2-yl)-2,5-diphenyltetrazolium bromide. The viable cell number/well is directly proportional to the production of formazan, which following solubilization, can be measured spectrophotometrically (540 nm). This technique is also used by the National Cancer Institute to screen for new anticancer agents.
(§6) As described herein a number of cantharidin analogues have been synthesised and tested for their anticancer activity in nine cancer cell lines using the MTT assay after 72 h exposure. These new analogues are shown in FIG. 2 and have been designated MK-1 through to MK-9.

L1210 cells = assay: MTT cytotoxicity assay, 72 h; type: cell-based, murine; conditions: L1210, p53 wt; read-out: IC50 (mean ± SE) after 72 h continuous exposure
Description: as §4, §5, §6

ADDP cells = assay: MTT cytotoxicity assay, 72 h; type: cell-based, human; conditions: p53 mt, read-out: IC50 (mean ± SE) after 72 h continuous exposure
Description: as §4, §5, §6

HCT116 cells = assay: MTT cytotoxicity assay, 72 h; type: cell-based, human; conditions: HCT116, p53 wt; read-out: IC50 (mean ± SE) after 72 h continuous exposure
Description: as §4, §5, §6

SW480 cells = assay: MTT cytotoxicity assay, 72 h; type: cell-based, human; conditions: SW480, p53 mt; read-out: IC50 (mean ± SE) after 72 h continuous exposure
Description: as §4, §5, §6

143B cells = assay: MTT cytotoxicity assay, 72 h; type: cell-based, human; conditions: p53 mt, read-out: IC50 (mean ± SE) after 72 h continuous exposure
Description: as §4, §5, §6

HT29 cells = assay: MTT cytotoxicity assay, 72 h; type: cell-based, human; conditions: HT29, p53 mt; read-out: IC50 (mean ± SE) after 72 h continuous exposure
Description: as §4, §5, §6

A2780 cells = assay: MTT cytotoxicity assay, 72 h; type: cell-based, human; conditions: A2780, p53 wt; read-out: IC50 (mean ± SE) after 72 h continuous exposure
Description: as §4, §5, §6

WiDr cells = assay: MTT cytotoxicity assay, 72 h; type: cell-based, human; conditions: p53 mt, read-out: IC50 (mean ± SE) after 72 h continuous exposure
Description: as §4, §5, §6

HL60 cells = assay: MTT cytotoxicity assay, 72 h; type: cell-based, human; conditions: HL60, p53 nul; read-out: IC50 (mean ± SE) after 72 h continuous exposure
Description: as §4, §5, §6

[5] = target: protein phosphatase 1 (PP1); conditions: background art; cited from earlier work
[6] = nine cell lines, read-out: IC50 range across all cell lines tested

Sequence of protein phosphatase 2A (PP2A) (Gallus gallus, UniProt P48463) (P48463 whole entry): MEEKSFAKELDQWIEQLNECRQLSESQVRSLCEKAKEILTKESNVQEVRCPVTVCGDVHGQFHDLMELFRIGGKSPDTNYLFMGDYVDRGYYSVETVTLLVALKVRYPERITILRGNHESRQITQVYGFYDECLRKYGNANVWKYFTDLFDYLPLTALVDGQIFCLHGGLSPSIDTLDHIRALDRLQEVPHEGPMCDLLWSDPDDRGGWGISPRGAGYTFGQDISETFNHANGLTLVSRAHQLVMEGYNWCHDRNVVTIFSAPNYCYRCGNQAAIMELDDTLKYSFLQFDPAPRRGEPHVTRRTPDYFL

COC(=O)C1C2C=CC(S2)C1C(=O)OC (stereo not shown)
Inhibition of PP1 (%) [1]: 3%

O=C1NC(=O)C2C3CCC(S3)C12 (stereo not shown)
Inhibition of PP1 (%) [1]: 15%

O=C1OC(=O)C2C3CCC(O3)C12 (stereo not shown) [Compound 1]
IC50 [1]: 2.4 µM
Selectivity PP2A/PP1 [1]: 0.875
Inhibition of PP1 (%) [1]: 90%
inhibition [2]: 97%

O=C1OC(=O)C2C3C=CC(O3)C12 (stereo not shown) [Compound 2, norcantharidin, reference compound]
inhibition [2]: 95%

O=C1OC(=O)[C@H]2[C@@H]1[C@H]1CC[C@H]2O1 [Compound 2, norcantharidin]
Stability under assay conditions [3]: rapid conversion to the dicarboxylic acid
Inhibition of PP2A (%) ([2]; initial screening at 100 mM (so in the source)): 95%
Previously reported PP2A selectivity ([4]; PP2A over PP1): ~10 fold

COC(=O)C1C2C=CC(O2)C1C(=O)OC (stereo not shown) [Compound 3]
IC50 [1]: 50 µM
Selectivity PP2A/PP1 [1]: >200
Inhibition of PP1 (%) [1]: 46%
inhibition [2]: 6%

CO[C@H]1OC(=O)C2C3CCC(O3)C21 (stereo partly shown) [Compound 4]
Inhibition of PP1 (%) [1]: 13%
inhibition [2]: 11%

CO[C@@H]1OC(=O)C2C3CCC(O3)C21 (stereo partly shown) [Compound 5]
Inhibition of PP1 (%) [1]: 15%
inhibition [2]: 8%

O=C1OC(O)C2C3CCC(O3)C12 (stereo not shown) [Compound 6]
Inhibition of PP1 (%) [1]: 9%
inhibition [2]: 11%

O=C1OCC2C3CCC(O3)C12 (stereo not shown) [Compound 7]
inhibition [2]: 21%

O=C1NC(=O)C2C3C=CC(S3)C12 (stereo not shown) [MK-1]
IC50 (nine cancer cell lines; [6]): > 1000 µM
IC50 (L1210 cells): > 1000 µM
IC50 (ADDP cells): > 1000 µM
IC50 (HCT116 cells): > 1000 µM
IC50 (SW480 cells): > 1000 µM
IC50 (143B cells): > 1000 µM
IC50 (HT29 cells): > 1000 µM
IC50 (A2780 cells): > 1000 µM
IC50 (WiDr cells): > 1000 µM
IC50 (HL60 cells): > 1000 µM

O=C(O)C1C2C=CC(O2)C1C(=O)Oc1ccccc1 (stereo not shown) [MK-3]
IC50 (nine cancer cell lines; [6]): ≥ 247 µM
IC50 (L1210 cells): 647 ± 132 µM
IC50 (ADDP cells): > 1000 µM
IC50 (HCT116 cells): > 1000 µM
IC50 (SW480 cells): 444 ± 27 µM
IC50 (143B cells): 665 ± 225 µM
IC50 (HT29 cells): 530 ± 112 µM
IC50 (A2780 cells): 317 ± 17 µM
IC50 (WiDr cells): 620 ± 31 µM
IC50 (HL60 cells): 247 ± 55 µM

COC1OC(=O)C2C3CCC(O3)C12 (stereo not shown) [MK-5]
IC50 (nine cancer cell lines; colon lines, read-out: IC50 range in human colon cancer cell lines): 28 to 247 µM
IC50 (nine cancer cell lines; leukaemia lines, read-out: IC50 range in leukaemia cells): ≥ 323 µM
IC50 (nine cancer cell lines; ovarian lines, read-out: IC50 range in ovarian cells): 260 to 567 µM
IC50 (L1210 cells): > 1000 µM
IC50 (ADDP cells): 260 ± 40 µM
IC50 (HCT116 cells): 143 ± 23 µM
IC50 (SW480 cells): 247 ± 14 µM
IC50 (143B cells): > 1000 µM
IC50 (HT29 cells): 28 ± 1 µM
IC50 (A2780 cells): 567 ± 109 µM
IC50 (WiDr cells): 31 ± 10 µM
IC50 (HL60 cells): 323 ± 13 µM

C=C1[C@@H](O)[C@@H]2O[C@]3(CC[C@H](/C=C/[C@@H](C)[C@@H]4CC(C)=C[C@@]5(O[C@H](C[C@@](C)(O)C(=O)O)CC[C@H]5O)O4)O3)CC[C@H]2O[C@@H]1[C@@H](O)C[C@H](C)[C@H]1O[C@@]2(CCCCO2)CC[C@H]1C [Okadaic acid]
IC50 [5]: 0.06 µM
IC50 [4]: 0.001 µM

O=C1SC(=O)[C@H]2[C@@H]1[C@@H]1CC[C@H]2O1 [endothal thioanhydride]
Potency relative to cantharidin [4]: three fold more potent than cantharidin

calyculin
IC50 [5]: 0.0005 to 0.001 µM
IC50 [4]: 0.002 µM
